Usually MIC stands for the least concentration at which growth counts as inhibited.

We go through seven compounds from US20100022483A1, “Substituted Tetracycline Compounds” (Paratek Pharmaceuticals, Inc., priority 2008, published 2010).

Values after ≈ are worked out from the molar mass of the structure shown. Like-named read-outs stand apart in the source and are kept apart here.

In series [1] the test system is gram positive bacteria. As to the kind of experiment: In vitro anti-bacterial activity assay (broth dilution MIC), gram positive bacteria. In kind it is cell-based, S. aureus. Particulars: 18 h. In outline:
(§1)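 Broth dilution MIC following CLSI M7-A2: compounds serially diluted, log-phase test strains added to final ~5×10^5 CFU/ml, incubated ~18 hours at 35° C in ambient air. Plates read on microplate reader or visually; MIC is lowest concentration inhibiting growth.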

For series [2], the system named is gram negative bacteria. As to the kind of experiment: In vitro anti-bacterial activity assay (broth dilution MIC), gram negative bacteria. In kind it is cell-based, E. coli. The method, boiled down: as §1
For orientation: Dilution methods test growth across graded concentrations, often in twofold steps.

A short description of series [3]: Mammalian cytotoxicity assay (resazurin), COS-1 cells. It is filed as cell-based. Particulars: African green monkey, read-out: Cytotox. COS-1. In outline: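 Resazurin read-out (0.042 mg/ml, 2 h at 37° C. then 30 min dark, room temperature; fluorescence 535/590 nm) follows 24-hour compound exposure of overnight-seeded cells, serially diluted. IC50 is the concentration giving 50% growth inhibition.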
Background: Alamar Blue is a resazurin reagent that responds to reducing activity.

Series [4] in a line: in vitro. In kind it is cell-based. Particulars: Chinese hamster, Cytotox. CHO-K1.
Series [5] has as its system 3T3 fibroblast cells. The experiment in a line: In vitro phototoxicity assay (neutral red; UV light-treated vs dark control plates). In kind it is cell-based. The conditions noted are these: for Photo Toxicity UV Tox50: UV light 50 minutes; for Photo Toxicity Dark Tox50: dark control plate. The method, boiled down: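 Neutral red viability readout (A535 after EtOH/acetic acid extraction) compares paired plates: one exposed 50 min to UV at 1.6–1.8 mW/cm^2, one held in darkness, both dosed with compound in HBSS and recovered overnight. 3T3 fibroblast cells used; phototoxicity taken as the difference.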

[6] abbreviates: Staphylococcus aureus, S. aureus MRSA5, read-out: Median MIC's G+ S. aureus MRSA5.
Setting [7] is: Staphylococcus aureus, S. aureus RN450, read-out: Median MIC's G+ S. aureus RN450.
Setting [8] is: Streptococcus pneumoniae, S. pneumoniae 157E-Strep, read-out: Median MIC's G+ S. pneumoniae 157E-Strep.
The mark [9] stands for this setting: Escherichia coli, 18 h, E. coli D1 209, read-out: Median MIC's G− E. coli D1 209.
The mark [10] stands for this setting: Escherichia coli, 18 h, E. coli MG 1655, read-out: Median MIC's G− E. coli MG 1655.
[11] abbreviates: Escherichia coli, ATCC25922, 18 h, E. coli ATCC 25922, read-out: Median MIC's G− E. coli ATCC 25922.
Setting [12] is: Pseudomonas aeruginosa, 18 h, P. aeruginosa K201 PAO6609, read-out: Median MIC's G− P. aeruginosa K201 PAO6609.

As to `CN(C)[C@@H]1C(O)=C(C(N)=O)C(=O)[C@@]2(O)C(O)=C3C(=O)c4c(O)ccc(C(=O)CNCc5ccco5)c4C[C@H]3C[C@@H]12` [CC], the MIC stood at 16 µg/mL (≈ 29 µM) in series [1] (setting [6]); 1 µg/mL (≈ 1.81 µM) in series [1] (setting [7]); 2 µg/mL (≈ 3.63 µM) in series [1] (setting [8]); 64 µg/mL (≈ 116 µM) in series [2] (setting [9]); 32 µg/mL (≈ 58 µM) in series [2] (setting [10]); 32 µg/mL (≈ 58 µM) in series [2] (setting [11]). Further, the minimum inhibitory concentration (MIC) in series [2] (setting [12]) was 64 µg/mL (≈ 116 µM). Besides, the IC50 at 24 h in series [3] and in series [4] was more than 44.7 µM each time. Besides, in series [5], the “Photo Toxicity UV Tox50” value was more than 144.12 µM. The “Photo Toxicity Dark Tox50” value in series [5] was more than 144.12 µM.
On to `CN(C)c1cc(-c2cccc(C(N)=O)c2)c(O)c2c1C[C@H]1C[C@H]3[C@H](N(C)C)C(O)=C(C(N)=O)C(=O)[C@@]3(O)C(O)=C1C2=O` [CD], for which the MIC in series [1] (setting [6]) came out at 32 µg/mL (≈ 55.5 µM); in series [1] (setting [7]), 8 µg/mL (≈ 13.9 µM); in series [1] (setting [8]), 16 µg/mL (≈ 27.7 µM); in series [2] (setting [9]) it was 64 µg/mL (≈ 111 µM); in series [2] (setting [10]), 64 µg/mL (≈ 111 µM); in series [2] (setting [11]), 64 µg/mL (≈ 111 µM). In addition, the MIC in series [2] (setting [12]) turned out to be 64 µg/mL (≈ 111 µM). The IC50 at 24 h in series [3] and in series [4] was more than 45.3 µM each time. Moreover, in series [5], the “Photo Toxicity UV Tox50” value is more than 146.26 µM. Further, in series [5], the “Photo Toxicity Dark Tox50” value was more than 146.26 µM.
For `CN(C)[C@@H]1C(O)=C(C(N)=O)C(=O)[C@@]2(O)C(O)=C3C(=O)c4c(O)ccc(C(=O)CNCc5cccn5C)c4C[C@H]3C[C@@H]12` [CE], the MIC in series [1] (setting [6]) was found to be 4 µg/mL (≈ 7.08 µM); in series [1] (setting [7]) it was 0.25 µg/mL (≈ 0.443 µM); in series [1] (setting [8]), 0.5 µg/mL (≈ 0.886 µM); in series [2] (setting [9]), 64 µg/mL (≈ 113 µM); in series [2] (setting [10]), 4 µg/mL (≈ 7.08 µM); in series [2] (setting [11]) it was 4 µg/mL (≈ 7.08 µM). In addition, in series [2] (setting [12]), the MIC was 64 µg/mL (≈ 113 µM). The IC50 at 24 h in series [3] and in series [4] was more than 41.4 µM in each case. Besides, the “Photo Toxicity UV Tox50” value in series [5] is more than 133.53 µM. For the same compound, in series [5], the “Photo Toxicity Dark Tox50” value was more than 133.53 µM.
For `CN(C)[C@@H]1C(O)=C(C(N)=O)C(=O)[C@@]2(O)C(O)=C3C(=O)c4c(O)ccc(C(=O)Cn5ccnc5)c4C[C@H]3C[C@@H]12` [CF], the MIC turned out to be 64 µg/mL (≈ 122 µM) in series [1] (setting [6]); 4 µg/mL (≈ 7.66 µM) in series [1] (setting [7]); 4 µg/mL (≈ 7.66 µM) in series [1] (setting [8]); 64 µg/mL (≈ 122 µM) in series [2] (setting [9]); 64 µg/mL (≈ 122 µM) in series [2] (setting [10]); 64 µg/mL (≈ 122 µM) in series [2] (setting [11]). Also, in series [2] (setting [12]), the MIC was found to be 64 µg/mL (≈ 122 µM). Besides, the IC50 at 24 h in series [3] and in series [4] was more than 49.9 µM each time. In addition, in series [5], the “Photo Toxicity UV Tox50” value was more than 161.01 µM. The “Photo Toxicity Dark Tox50” value in series [5] was more than 161.01 µM.
Take `CC(=O)NCCC(=O)c1ccc(O)c2c1C[C@H]1C[C@H]3[C@H](N(C)C)C(O)=C(C(N)=O)C(=O)[C@@]3(O)C(O)=C1C2=O` [CI]: the MIC worked out at 64 µg/mL (≈ 121 µM) in series [1] (setting [6]); 2 µg/mL (≈ 3.79 µM) in series [1] (setting [7]); 2 µg/mL (≈ 3.79 µM) in series [1] (setting [8]); 64 µg/mL (≈ 121 µM) in series [2] (setting [9]); 64 µg/mL (≈ 121 µM) in series [2] (setting [10]); 64 µg/mL (≈ 121 µM) in series [2] (setting [11]). The MIC in series [2] (setting [12]) worked out at 64 µg/mL (≈ 121 µM). For the same compound, the IC50 at 24 h in series [3] and in series [4] was more than 160 µM in each case. In addition, the “Photo Toxicity UV Tox50” value in series [5] was more than 159.57 µM. In addition, in series [5], the “Photo Toxicity Dark Tox50” value is more than 159.57 µM.
Regarding `CN(C)CC/C(=N\OC(C)(C)C)c1ccc(O)c2c1C[C@H]1C[C@H]3[C@H](N(C)C)C(O)=C(C(N)=O)C(=O)[C@@]3(O)C(O)=C1C2=O` [CJ], the minimal inhibitory concentration (MIC) came out at 2 µg/mL (≈ 3.42 µM) in series [1] (setting [6]); 0.06 µg/mL (≈ 0.103 µM) in series [1] (setting [7]); 0.06 µg/mL (≈ 0.103 µM) in series [1] (setting [8]); 1 µg/mL (≈ 1.71 µM) in series [2] (setting [9]); 2 µg/mL (≈ 3.42 µM) in series [2] (setting [10]); 0.5 µg/mL (≈ 0.855 µM) in series [2] (setting [11]). Besides, the MIC in series [2] (setting [12]) was 64 µg/mL (≈ 109 µM). The figures for the IC50 at 24 h in series [3] and in series [4] were 82.2 µM and 34.6 µM, respectively. Besides, the “Photo Toxicity UV Tox50” value in series [5] amounted to 62.89 µM. Besides, the “Photo Toxicity Dark Tox50” value in series [5] was more than 136.86 µM.
Regarding `CN(C)[C@@H]1C(O)=C(C(N)=O)C(=O)[C@@]2(O)C(O)=C3C(=O)c4c(O)ccc(-c5cccc(C(=O)NCCO)c5)c4C[C@H]3C[C@@H]12` [CK], the minimum inhibitory concentration (MIC) in series [1] (setting [6]) amounted to 8 µg/mL (≈ 13.9 µM); in series [1] (setting [7]), 0.125 µg/mL (≈ 0.216 µM); in series [1] (setting [8]), 0.125 µg/mL (≈ 0.216 µM); in series [2] (setting [9]), 64 µg/mL (≈ 111 µM); in series [2] (setting [10]), 64 µg/mL (≈ 111 µM); in series [2] (setting [11]) it was 64 µg/mL (≈ 111 µM). In series [2] (setting [12]), the MIC is 64 µg/mL (≈ 111 µM). For the same compound, the IC50 at 24 h in series [3] and in series [4] was more than 14.7 µM in each case. Moreover, the “Photo Toxicity UV Tox50” value in series [5] is more than 146.56 µM. Also, in series [5], the “Photo Toxicity Dark Tox50” value was more than 146.58 µM.
